Assay results as given in paper PMC12867150, “A fungi-derived cyclic peptide enhances Th9-mediated antitumor immunity by targeting ZAP70 and SREBP1” (The Journal of Clinical Investigation, 2025).
Several values for one entry are separate records, joined by “and”; a condition that tells them apart may be missing. Equal values may be shown once.

Test system: endogenous CD4+ T cells
Test: Flow cytometry of endogenous CD4+ T cells in spleen, LN, tumor (Figure 2D-E, S1F-H)
Format: in vivo, mouse
Settings: for Frequencies of endogenous CD4⁺ T cells in LN: Supplemental Figure 1G left; for Number of endogenous CD4⁺ T cells in LN: Supplemental Figure 1G right; for CD4 gate number: representative flow plot; for endogenous CD4 T cells (%) / number of endogenous CD4 T cells: individual mice, n = 4
Description: C57BL/6 mice were subcutaneously injected with 5 × 10^5 B16-OVA melanoma cells. Five days after tumor implantation, mice received an intravenous infusion of 2 × 10^6 in vitro–differentiated Th9 cells (cultured for 5 days), which were derived from OT-II CD45.1 donor mice, accompanied by 4 × 10^5 OVA peptide–pulsed DCs via the tail vein. To enhance T cell engraftment and facilitate lymphodepletion, a single intraperitoneal injection of cyclophosphamide (200 mg/kg, Sigma, catalog C0768) was administered 1 day prior to T cell transfer. Mice were euthanized at designated time points for the collection and analysis of spleens, tumor-draining lymph nodes, and tumor tissues.
Details regarding staining panels (human and mouse), reagents (including clones and catalog numbers), acquisition settings, compensation/controls, and analysis procedures are provided in Supplemental Methods.
BioLegend, Cat. No. 422301 or Mouse TruStain FcX™, BioLegend, Cat. No. 101319) for 10 minutes at 4°C. For surface marker detection, cells were stained with fluorochrome-conjugated monoclonal antibodies in 96-well V-bottom plates and incubated on ice for 30 minutes. After staining, cells were washed twice and resuspended in FACS buffer for analysis.
Prior to intracellular cytokine staining, cells were restimulated for 4 hours with PMA (Absin, Cat. No. abs9107), ionomycin (Sigma-Aldrich, Cat. No. I0634), and brefeldin A (MedChemExpress, Cat. No. HY-16592). For intracellular cytokine staining, cells were first surface-stained as described above, then fixed and permeabilized using the BD Cytofix/Cytoperm™ kit (BD Biosciences, Cat. No. 554714) according to the manufacturer ’s protocol. Intracellular proteins were stained with directly conjugated antibodies targeting IL-9, IL-17a, IL-4, IFN-γ, TNF-α, FOXP3, p-ZAP70, Perforin, and […]
Antibodies used for mouse samples included those against IL-9 (PE, clone RM9A4, Biolegend, Cat. No. 514104), IFN-γ (PE, clone XMG1.2, Biolegend, Cat. No.
Cat. No. 103138), CD4 (APC/Cy7, clone E-AB-F1353UJ, Elabscience, Cat. No.
AF18028), CD8α (PerCP/Cy5.5, clone E-AB-F1104UJ, Elabscience, Cat. No. […]
clone E-AB-F1187UH, Elabscience, Cat. No. AF19854), TNF-α (BV421, clone MP6-XT22, Biolegend, Cat. No. 506328), FOXP3 (PE, clone FJK-16s, eBioscience, Cat. No.
Perforin (APC, clone S16009A, Biolegend, Cat. No. 154303) and Granzyme B (APC, […]
clone QA16A02, Biolegend, Cat. No. 372203). […]
Figure S1. EpA enhances immune responses. […]
I) Representative flow-cytometric plots of endogenous CD4⁺ and CD8⁺ T cells in spleens (F), LNs (G), and tumors (H); frequencies and absolute numbers of endogenous CD4⁺ (G) and CD8⁺ (I) T cells in LNs are quantified. (J and K) […]
Statistical analysis was performed using two-way ANOVA with Tukey’s post hoc test (A), one-way ANOVA with Tukey’s post hoc test (B) or two-tailed unpaired Student’s t-test (D and G–M). ns, not significant. *p < 0.05, **p < 0.01, ****p < 0.0001.
(also on this page, place not known: Mouse weight (g) CtrlEpA CtrlEpA CtrlEpA0 I CD45.1+ T cells (%) CtrlEpA CD4+ T cells (%) CtrlEpA CtrlEpA CtrlEpA FSC CD8 CD8 FSC FSC FSC BNumber of CD45.1+ T cells (×103 per mgĎ Number of CD4+ T cells (×104 per mgĎ DC (%)NK cells (%) NK cells (%) DC (%) Number of DC (×103 per mg) Number of NK cells (×105) Number of NK cells (×103 per mg) Number of DC (×105) FSC FSC FSC CD8 CtrlEpA CtrlEpA CtrlEpA CD8+ T cells (%) Number of CD8+ T cells (×104 per mgĎ nsns ns nsns ns 40 IL-6 (pg/ml)) […]

Substance: anteiso-C15 Leu7 surfactin [EpA]
- Frequencies of endogenous CD4⁺ T cells in LN (LN, replicate 1): 32.6
- Frequencies of endogenous CD4⁺ T cells in LN (LN, replicate 2): 26.4
- Frequencies of endogenous CD4⁺ T cells in LN (LN, replicate 3): 36
- Frequencies of endogenous CD4⁺ T cells in LN (LN, replicate 4): 26
- Number of endogenous CD4⁺ T cells in LN (LN, replicate 1): 43261
- Number of endogenous CD4⁺ T cells in LN (LN, replicate 2): 37630
- Number of endogenous CD4⁺ T cells in LN (LN, replicate 3): 15416
- Number of endogenous CD4⁺ T cells in LN (LN, replicate 4): 15595.7
- CD4 gate number (LN, Figure S1G): 36.0
- CD4 gate number (Spleen, Figure S1F): 26.1
- CD4 gate number (Tumor, Figure S1H): 15.2
- endogenous CD4+ T cell frequency and number (spleens, lymph nodes, tumors, result in words): minimal changes
- endogenous CD4 T cells (%) (spleens): 30.3% and 32.9% and 35.5% and 26.1%
- number of endogenous CD4 T cells (spleens): 1093264 and 1018812 and 1081910 and 535955
- endogenous CD4 T cells (%) (tumors): 15.2% and 16.6% and 24% and 21.6%
- number of endogenous CD4 T cells (tumors): 158 and 294 and 393 and 62
